Legend:
[1] = test system: 3T3 NIH cells; assay: PI-3K activity associated with activated receptor in PDGF-stimulated 3T3 NIH cells; format: cell-based; conditions: PDGF 50 ng/ml, 5 min, 37° C.; reaction 60 min, PI4,5P2 (10 μg) + PS (20 μg); FIG. 3
Experimental: FIG. 3: Detection of PI-3K activity associated with activated receptor. 3T3NIH cells (5×10^7 cells) were treated without (lane 1) or with (lane 2) PDGF (50 ng/ml for 5 min at 37° C.) and PI-3K was co-immunoprecipitated using anti-phosphotyrosine specific antibodies. The PI-3K reactions were run for 60 min using PIP2 (10 μg)+PS (20 μg) as substrates.
In resting cells, PI-3K is located in the cytosol. However, upon cell stimulation, the enzyme is recruited to the plasma membrane where it is associated with particular receptors and is involved in further propagation of the signal. This example illustrates that the described method allows to measure PI-3K activity associated with activated receptor. 3T3 NIH cells (0.5×10^7 cells) were starved oveminght in serum-free medium. PDGF (50 ng/ml) was added to the starved cells and the induction was carried out for 5 min at 37° C. Following the PDGF induction, cells were washed once with PBS while on the plate, scraped into PBS, transferred to a centrifuge tube, pelleted by centrifugation. The cell pellet was lysed and activated receptor-PI-3K complex was iminunoprecipitated using anti-phosphotyrosine specific antibodies. The PI-3K reaction was run for 60 min using PI4,5P2 (10 μg) as substrate, immobilized on “SAM2”-brand membranes, together with 20 μg of carrier lipid (PS).

[2] = test system: PI-5K; assay: Reaction specificity of PI-5K toward lipid substrates; format: biochemical; conditions: purified PI-5K 125 ng/ml, 15 min, room temperature; FIG. 9
Experimental: FIG. 9: Reaction specificity toward lipid substrates. Reactions according to the subject invention were performed with purified PI4P-5K (250 ng/ml) for 45 min at room temperature using 1 μg of different lipid substrates: PI3,4P (lane 1); PI3,5P2 (lane 2) and PI4,5P2 (lane 3). In addition to lipid substrates, all samples contained 10 μg of PS loaded on the membrane.
Lipids, 10 μg of PI4,5P2+20 μg of PS, were dissolved in chloroform:methanol (2:1) and loaded onto “SAM2”-brand membranes for PI-3K activity measurements. Likewise, 10 μg of PI4P was loaded onto “SAM2”-brand membranes for PI4P-5K activity measurements. The membranes were air dried and a reaction mixture containing 50 mM HEPES/NaOH, pH7.5, 100 mM NaCl, 10 mM MgCl2, 20 ng partially-purified PI-3K or 10 ng of purified PI4P-5K, 50 μM ATP supplemented with 1 μCi of γ-^32P-ATP was added onto the membrane containing the immobilized lipids.
Following incubation at room temperature, the reactions were stopped with 7.5 M guanidine chloride and the membranes were washed with 2M NaCl, followed by 2 M NaCl/1% H3PO4. The washed membranes were dried and subjected to scintillation counting.
This Example illustrates the reaction specificity toward lipid substrates. Here, a reaction was performed with purified PI-5K (125 ng/ml) for 15 min at room temperature using different lipid substrates: PI3,4P (lane 1); PI3,5P (lane 2) and PI4,5P2 (Lane 3).

| Substance | PI-3K activity co-immunoprecipitated with anti-phosphotyrosine antibodies [1] | substrate for PI-5K (phosphorylation, CPM) [2] |
| --- | --- | --- |
| platelet-derived growth factor [PDGF] | increase in PI-3K activity | – |
| D-myo-phosphatidylinositol 3,5-bisphosphate [PI3,5P] | – | not substrates |
| D-myo-phosphatidylinositol 3,4-bisphosphate [PI3,4P] | – | suitable substrate |
| D-myo-phosphatidylinositol 4,5-bisphosphate [PI4,5P] | – | not substrates |

From US6893834B2, “Assay for kinases and phosphatases” (Promega Corporation, priority 2000, dated 2005)
